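Five compound concentrations were applied to cells in 96-well plates for 48 hours; endpoints were derived by simple linear interpolation of the resulting dose-response curve. TGI: total growth inhibition.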
What was measured:
Test in all cases: NCI-60 cell line screen, 48 h
NCI/ADR-RES ovarian = system: NCI/ADR-RES ovarian
HOP-92 NSCLC = system: HOP-92 NSCLC
NCI-H23 lung = system: NCI-H23 lung
SN12C renal = system: SN12C renal
CAKI-1 renal = system: CAKI-1 renal
UO-31 renal = system: UO-31 renal
TK-10 renal = system: TK-10 renal
HT29 colon = system: HT29 colon
A549 NSCLC = system: A549 NSCLC
SNB-19 CNS = system: SNB-19 CNS
SF-268 CNS = system: SF-268 CNS
LOX IMVI melanoma = system: LOX IMVI melanoma
A498 renal = system: A498 renal
HCC-2998 colon = system: HCC-2998 colon
OVCAR-4 ovarian = system: OVCAR-4 ovarian
OVCAR-5 ovarian = system: OVCAR-5 ovarian
MALME-3M melanoma = system: MALME-3M melanoma
T-47D breast = system: T-47D breast
SK-OV-3 ovarian = system: SK-OV-3 ovarian
U251 CNS = system: U251 CNS
NCI-H522 lung = system: NCI-H522 lung
BT-549 breast = system: BT-549 breast
NCI-H226 lung = system: NCI-H226 lung
KM12 colon = system: KM12 colon
HOP-62 NSCLC = system: HOP-62 NSCLC
PC-3 prostate = system: PC-3 prostate
SR leukemia = system: SR leukemia
UACC-257 melanoma = system: UACC-257 melanoma
SK-MEL-2 melanoma = system: SK-MEL-2 melanoma
MDA-MB-231 breast = system: MDA-MB-231 breast
K-562 leukemia = system: K-562 leukemia
RPMI-8226 leukemia = system: RPMI-8226 leukemia
SNB-75 CNS = system: SNB-75 CNS
ACHN renal = system: ACHN renal
MDA-MB-435 = system: MDA-MB-435
SF-539 CNS = system: SF-539 CNS
EKVX NSCLC = system: EKVX NSCLC
SK-MEL-5 melanoma = system: SK-MEL-5 melanoma
HCT-116 colon = system: HCT-116 colon
OVCAR-3 ovarian = system: OVCAR-3 ovarian
COLO 205 colon = system: COLO 205 colon
MOLT-4 leukemia = system: MOLT-4 leukemia
DU-145 prostate = system: DU-145 prostate
CCRF-CEM leukemia = system: CCRF-CEM leukemia
MCF7 breast = system: MCF7 breast
M14 melanoma = system: M14 melanoma
UACC-62 melanoma = system: UACC-62 melanoma
IGROV1 ovarian = system: IGROV1 ovarian
SK-MEL-28 melanoma = system: SK-MEL-28 melanoma
HCT-15 colon = system: HCT-15 colon
HL-60(TB) leukemia = system: HL-60(TB) leukemia
SW-620 colon = system: SW-620 colon
HS 578T breast = system: HS 578T breast
786-0 renal = system: 786-0 renal
NCI-H460 lung = system: NCI-H460 lung
MDA-N = system: MDA-N
RXF 393 renal = system: RXF 393 renal
OVCAR-8 ovarian = system: OVCAR-8 ovarian
SF-295 CNS = system: SF-295 CNS

## COP(=N[Si](C)(C)C)(OC)OC
NCI/ADR-RES ovarian
  TGI: > 100 µM
HOP-92 NSCLC
  TGI: > 100 µM
NCI-H23 lung
  TGI: > 100 µM
SN12C renal
  TGI: > 100 µM
CAKI-1 renal
  TGI: > 100 µM
UO-31 renal
  TGI: > 100 µM
TK-10 renal
  TGI: > 100 µM
HT29 colon
  TGI: > 100 µM
A549 NSCLC
  TGI: > 100 µM
SNB-19 CNS
  TGI: > 100 µM
SF-268 CNS
  TGI: > 100 µM
LOX IMVI melanoma
  TGI: > 100 µM
A498 renal
  TGI: > 100 µM
HCC-2998 colon
  TGI: > 100 µM
OVCAR-4 ovarian
  TGI: > 100 µM
OVCAR-5 ovarian
  TGI: > 100 µM
MALME-3M melanoma
  TGI: > 100 µM
T-47D breast
  TGI: > 100 µM
SK-OV-3 ovarian
  TGI: > 100 µM
U251 CNS
  TGI: > 100 µM
NCI-H522 lung
  TGI: > 100 µM
BT-549 breast
  TGI: > 100 µM
NCI-H226 lung
  TGI: > 100 µM
KM12 colon
  TGI: > 100 µM
HOP-62 NSCLC
  TGI: > 100 µM
PC-3 prostate
  TGI: > 100 µM
SR leukemia
  TGI: > 100 µM
UACC-257 melanoma
  TGI: > 100 µM
SK-MEL-2 melanoma
  TGI: > 100 µM
MDA-MB-231 breast
  TGI: > 100 µM
K-562 leukemia
  TGI: > 100 µM
RPMI-8226 leukemia
  TGI: > 100 µM
SNB-75 CNS
  TGI: > 100 µM
ACHN renal
  TGI: > 100 µM
MDA-MB-435
  TGI: > 100 µM
SF-539 CNS
  TGI: > 100 µM
EKVX NSCLC
  TGI: > 100 µM
SK-MEL-5 melanoma
  TGI: > 100 µM
HCT-116 colon
  TGI: > 100 µM
OVCAR-3 ovarian
  TGI: > 100 µM
COLO 205 colon
  TGI: > 100 µM
MOLT-4 leukemia
  TGI: > 100 µM
DU-145 prostate
  TGI: > 100 µM
CCRF-CEM leukemia
  TGI: > 100 µM
MCF7 breast
  TGI: > 100 µM
M14 melanoma
  TGI: > 100 µM
UACC-62 melanoma
  TGI: > 100 µM
IGROV1 ovarian
  TGI: > 100 µM
SK-MEL-28 melanoma
  TGI: > 100 µM
HCT-15 colon
  TGI: > 100 µM
HL-60(TB) leukemia
  TGI: > 100 µM
SW-620 colon
  TGI: > 100 µM
HS 578T breast
  TGI: > 100 µM
786-0 renal
  TGI: > 100 µM
NCI-H460 lung
  TGI: > 100 µM
MDA-N
  TGI: > 100 µM
RXF 393 renal
  TGI: > 100 µM
OVCAR-8 ovarian
  TGI: > 100 µM

## O=c1oc2ccccc2cc1-c1ccc([N+](=O)[O-])cc1
NCI/ADR-RES ovarian
  TGI: > 100 µM
HOP-92 NSCLC
  TGI: > 100 µM
NCI-H23 lung
  TGI: > 100 µM
SN12C renal
  TGI: > 100 µM
CAKI-1 renal
  TGI: > 100 µM
UO-31 renal
  TGI: > 100 µM
TK-10 renal
  TGI: > 100 µM
HT29 colon
  TGI: > 100 µM
A549 NSCLC
  TGI: > 100 µM
SNB-19 CNS
  TGI: > 75.6 µM
SF-268 CNS
  TGI: > 100 µM
LOX IMVI melanoma
  TGI: > 100 µM
A498 renal
  TGI: > 100 µM
HCC-2998 colon
  TGI: > 100 µM
OVCAR-4 ovarian
  TGI: > 100 µM
OVCAR-5 ovarian
  TGI: > 100 µM
MALME-3M melanoma
  TGI: > 100 µM
SF-295 CNS
  TGI: > 100 µM
T-47D breast
  TGI: > 100 µM
SK-OV-3 ovarian
  TGI: > 100 µM
U251 CNS
  TGI: > 51.9 µM
NCI-H522 lung
  TGI: > 100 µM
BT-549 breast
  TGI: > 100 µM
NCI-H226 lung
  TGI: > 100 µM
KM12 colon
  TGI: > 100 µM
HOP-62 NSCLC
  TGI: > 100 µM
PC-3 prostate
  TGI: > 100 µM
SR leukemia
  TGI: > 100 µM
UACC-257 melanoma
  TGI: > 100 µM
SK-MEL-2 melanoma
  TGI: > 100 µM
MDA-MB-231 breast
  TGI: > 100 µM
K-562 leukemia
  TGI: > 100 µM
RPMI-8226 leukemia
  TGI: > 100 µM
SNB-75 CNS
  TGI: > 100 µM
ACHN renal
  TGI: > 100 µM
MDA-MB-435
  TGI: > 100 µM
SF-539 CNS
  TGI: > 100 µM
EKVX NSCLC
  TGI: > 100 µM
SK-MEL-5 melanoma
  TGI: > 100 µM
HCT-116 colon
  TGI: > 100 µM
OVCAR-3 ovarian
  TGI: > 100 µM
COLO 205 colon
  TGI: > 100 µM
MOLT-4 leukemia
  TGI: > 100 µM
DU-145 prostate
  TGI: > 100 µM
CCRF-CEM leukemia
  TGI: > 100 µM
MCF7 breast
  TGI: > 100 µM
M14 melanoma
  TGI: > 100 µM
UACC-62 melanoma
  TGI: > 100 µM
IGROV1 ovarian
  TGI: > 100 µM
SK-MEL-28 melanoma
  TGI: > 100 µM
HCT-15 colon
  TGI: > 100 µM
HL-60(TB) leukemia
  TGI: > 100 µM
SW-620 colon
  TGI: > 100 µM
HS 578T breast
  TGI: > 100 µM
786-0 renal
  TGI: > 100 µM
NCI-H460 lung
  TGI: > 100 µM
MDA-N
  TGI: > 100 µM
RXF 393 renal
  TGI: > 100 µM
OVCAR-8 ovarian
  TGI: > 100 µM

— PubChem BioAssay (NCI)
